Assay results from ChEMBL document CHEMBL1240428, “Conventional and microwave assisted synthesis of some new N-[(4-oxo-2-substituted aryl -1, 3-thiazolidine)-acetamidyl]-5-nitroindazoles and its antimicrobial activity” (2010).
Values after ≈ are worked out from the molar mass of the structure shown.

Test system: Escherichia coli
Assay: Antibacterial activity against Escherichia coli at 50 ug/mL
Assay type: functional
Conditions: read-out: IZ

| SMILES | zone of inhibition at 50 µg/mL [mm] |
| --- | --- |
| O=C(Cn1ncc2cc([N+](=O)[O-])ccc21)NN1C(=O)CSC1c1cccc(Br)c1 (centres undefined) | 20.2 |
| O=C(Cn1ncc2cc([N+](=O)[O-])ccc21)NN1C(=O)CSC1c1ccccc1[N+](=O)[O-] (centres undefined) | 23.5 |
| O=C(Cn1ncc2cc([N+](=O)[O-])ccc21)NN1C(=O)CSC1c1cccc([N+](=O)[O-])c1 (centres undefined) | 24.6 |

Test system: Escherichia coli
Assay: Antibacterial activity against Escherichia coli at 100 ug/mL
Assay type: functional
Conditions: read-out: IZ

| SMILES | zone of inhibition at 100 µg/mL [mm] |
| --- | --- |
| O=C(Cn1ncc2cc([N+](=O)[O-])ccc21)NN1C(=O)CSC1c1cccc(Br)c1 (centres undefined) | 23 |
| O=C(Cn1ncc2cc([N+](=O)[O-])ccc21)NN1C(=O)CSC1c1ccccc1[N+](=O)[O-] (centres undefined) | 26.9 |
| O=C(Cn1ncc2cc([N+](=O)[O-])ccc21)NN1C(=O)CSC1c1cccc([N+](=O)[O-])c1 (centres undefined) | 28 |

Test system: Bacillus subtilis
Assay: Antibacterial activity against Bacillus subtilis at 50 ug/mL
Assay type: functional
Conditions: read-out: IZ

| SMILES | zone of inhibition at 50 µg/mL [mm] |
| --- | --- |
| O=C(Cn1ncc2cc([N+](=O)[O-])ccc21)NN1C(=O)CSC1c1cccc(Br)c1 (centres undefined) | 16.9 |
| O=C(Cn1ncc2cc([N+](=O)[O-])ccc21)NN1C(=O)CSC1c1ccccc1[N+](=O)[O-] (centres undefined) | 20 |
| O=C(Cn1ncc2cc([N+](=O)[O-])ccc21)NN1C(=O)CSC1c1cccc([N+](=O)[O-])c1 (centres undefined) | 21 |

Test system: Bacillus subtilis
Assay: Antibacterial activity against Bacillus subtilis at 100 ug/mL
Assay type: functional
Conditions: read-out: IZ

| SMILES | zone of inhibition at 100 µg/mL [mm] |
| --- | --- |
| O=C(Cn1ncc2cc([N+](=O)[O-])ccc21)NN1C(=O)CSC1c1cccc(Br)c1 (centres undefined) | 21.4 |
| O=C(Cn1ncc2cc([N+](=O)[O-])ccc21)NN1C(=O)CSC1c1ccccc1[N+](=O)[O-] (centres undefined) | 25.5 |
| O=C(Cn1ncc2cc([N+](=O)[O-])ccc21)NN1C(=O)CSC1c1cccc([N+](=O)[O-])c1 (centres undefined) | 26.1 |

Test system: Aspergillus flavus
Assay: Antifungal activity against Aspergillus flavus at 50 ug/mL
Assay type: functional
Conditions: read-out: IZ

| SMILES | zone of inhibition at 50 µg/mL [mm] |
| --- | --- |
| O=C(Cn1ncc2cc([N+](=O)[O-])ccc21)NN1C(=O)CSC1c1cccc(Br)c1 (centres undefined) | 20 |
| O=C(Cn1ncc2cc([N+](=O)[O-])ccc21)NN1C(=O)CSC1c1ccccc1[N+](=O)[O-] (centres undefined) | 23.6 |
| O=C(Cn1ncc2cc([N+](=O)[O-])ccc21)NN1C(=O)CSC1c1cccc([N+](=O)[O-])c1 (centres undefined) | 24.7 |

Test system: Aspergillus flavus
Assay: Antifungal activity against Aspergillus flavus at 100 ug/mL
Assay type: functional
Conditions: read-out: IZ

| SMILES | zone of inhibition at 100 µg/mL [mm] |
| --- | --- |
| O=C(Cn1ncc2cc([N+](=O)[O-])ccc21)NN1C(=O)CSC1c1cccc(Br)c1 (centres undefined) | 22.8 |
| O=C(Cn1ncc2cc([N+](=O)[O-])ccc21)NN1C(=O)CSC1c1ccccc1[N+](=O)[O-] (centres undefined) | 26.1 |
| O=C(Cn1ncc2cc([N+](=O)[O-])ccc21)NN1C(=O)CSC1c1cccc([N+](=O)[O-])c1 (centres undefined) | 27 |

Test system: Penicillium citrinum
Assay: Antifungal activity against Penicillium citrinum at 50 ug/mL
Assay type: functional
Conditions: read-out: IZ

| SMILES | zone of inhibition at 50 µg/mL [mm] |
| --- | --- |
| O=C(Cn1ncc2cc([N+](=O)[O-])ccc21)NN1C(=O)CSC1c1cccc(Br)c1 (centres undefined) | 18 |
| O=C(Cn1ncc2cc([N+](=O)[O-])ccc21)NN1C(=O)CSC1c1ccccc1[N+](=O)[O-] (centres undefined) | 21.4 |
| O=C(Cn1ncc2cc([N+](=O)[O-])ccc21)NN1C(=O)CSC1c1cccc([N+](=O)[O-])c1 (centres undefined) | 22.3 |

Test system: Penicillium citrinum
Assay: Antifungal activity against Penicillium citrinum at 100 ug/mL
Assay type: functional
Conditions: read-out: IZ

| SMILES | zone of inhibition at 100 µg/mL [mm] |
| --- | --- |
| O=C(Cn1ncc2cc([N+](=O)[O-])ccc21)NN1C(=O)CSC1c1cccc(Br)c1 (centres undefined) | 22 |
| O=C(Cn1ncc2cc([N+](=O)[O-])ccc21)NN1C(=O)CSC1c1ccccc1[N+](=O)[O-] (centres undefined) | 25.6 |
| O=C(Cn1ncc2cc([N+](=O)[O-])ccc21)NN1C(=O)CSC1c1cccc([N+](=O)[O-])c1 (centres undefined) | 26.5 |

Test system: Fusarium oxysporum
Assay: Antifungal activity against Fusarium oxysporum at 50 ug/mL
Assay type: functional
Conditions: read-out: IZ

| SMILES | zone of inhibition at 50 µg/mL [mm] |
| --- | --- |
| O=C(Cn1ncc2cc([N+](=O)[O-])ccc21)NN1C(=O)CSC1c1cccc(Br)c1 (centres undefined) | 20.8 |
| O=C(Cn1ncc2cc([N+](=O)[O-])ccc21)NN1C(=O)CSC1c1ccccc1[N+](=O)[O-] (centres undefined) | 24.2 |
| O=C(Cn1ncc2cc([N+](=O)[O-])ccc21)NN1C(=O)CSC1c1cccc([N+](=O)[O-])c1 (centres undefined) | 25.1 |

Test system: Fusarium oxysporum
Assay: Antifungal activity against Fusarium oxysporum at 100 ug/mL
Assay type: functional
Conditions: read-out: IZ

| SMILES | zone of inhibition at 100 µg/mL [mm] |
| --- | --- |
| O=C(Cn1ncc2cc([N+](=O)[O-])ccc21)NN1C(=O)CSC1c1cccc(Br)c1 (centres undefined) | 23.7 |
| O=C(Cn1ncc2cc([N+](=O)[O-])ccc21)NN1C(=O)CSC1c1ccccc1[N+](=O)[O-] (centres undefined) | 27 |
| O=C(Cn1ncc2cc([N+](=O)[O-])ccc21)NN1C(=O)CSC1c1cccc([N+](=O)[O-])c1 (centres undefined) | 28.4 |

Test system: Escherichia coli
Assay: Antibacterial activity against Escherichia coli
Assay type: functional
Conditions: not given

| SMILES | MIC [µg/mL] |
| --- | --- |
| O=C(Cn1ncc2cc([N+](=O)[O-])ccc21)NN1C(=O)CSC1c1cccc(Br)c1 (centres undefined) | 15 (≈ 31.5 µM) |
| O=C(Cn1ncc2cc([N+](=O)[O-])ccc21)NN1C(=O)CSC1c1ccccc1[N+](=O)[O-] (centres undefined) | 11 (≈ 24.9 µM) |
| O=C(Cn1ncc2cc([N+](=O)[O-])ccc21)NN1C(=O)CSC1c1cccc([N+](=O)[O-])c1 (centres undefined) | 10 (≈ 22.6 µM) |

Test system: Bacillus subtilis
Assay: Antibacterial activity against Bacillus subtilis
Assay type: functional
Conditions: not given

| SMILES | MIC [µg/mL] |
| --- | --- |
| O=C(Cn1ncc2cc([N+](=O)[O-])ccc21)NN1C(=O)CSC1c1cccc(Br)c1 (centres undefined) | 18 (≈ 37.8 µM) |
| O=C(Cn1ncc2cc([N+](=O)[O-])ccc21)NN1C(=O)CSC1c1ccccc1[N+](=O)[O-] (centres undefined) | 15 (≈ 33.9 µM) |
| O=C(Cn1ncc2cc([N+](=O)[O-])ccc21)NN1C(=O)CSC1c1cccc([N+](=O)[O-])c1 (centres undefined) | 15 (≈ 33.9 µM) |

Test system: Aspergillus flavus
Assay: Antifungal activity against Aspergillus flavus
Assay type: functional
Conditions: not given

| SMILES | MIC [µg/mL] |
| --- | --- |
| O=C(Cn1ncc2cc([N+](=O)[O-])ccc21)NN1C(=O)CSC1c1cccc(Br)c1 (centres undefined) | 17 (≈ 35.7 µM) |
| O=C(Cn1ncc2cc([N+](=O)[O-])ccc21)NN1C(=O)CSC1c1ccccc1[N+](=O)[O-] (centres undefined) | 11 (≈ 24.9 µM) |
| O=C(Cn1ncc2cc([N+](=O)[O-])ccc21)NN1C(=O)CSC1c1cccc([N+](=O)[O-])c1 (centres undefined) | 11 (≈ 24.9 µM) |

Test system: Penicillium citrinum
Assay: Antifungal activity against Penicillium citrinum
Assay type: functional
Conditions: not given

| SMILES | MIC [µg/mL] |
| --- | --- |
| O=C(Cn1ncc2cc([N+](=O)[O-])ccc21)NN1C(=O)CSC1c1cccc(Br)c1 (centres undefined) | 20 (≈ 42 µM) |
| O=C(Cn1ncc2cc([N+](=O)[O-])ccc21)NN1C(=O)CSC1c1ccccc1[N+](=O)[O-] (centres undefined) | 15 (≈ 33.9 µM) |
| O=C(Cn1ncc2cc([N+](=O)[O-])ccc21)NN1C(=O)CSC1c1cccc([N+](=O)[O-])c1 (centres undefined) | 14 (≈ 31.6 µM) |

Test system: Fusarium oxysporum
Assay: Antifungal activity against Fusarium oxysporum
Assay type: functional
Conditions: not given

| SMILES | MIC [µg/mL] |
| --- | --- |
| O=C(Cn1ncc2cc([N+](=O)[O-])ccc21)NN1C(=O)CSC1c1cccc(Br)c1 (centres undefined) | 13 (≈ 27.3 µM) |
| O=C(Cn1ncc2cc([N+](=O)[O-])ccc21)NN1C(=O)CSC1c1ccccc1[N+](=O)[O-] (centres undefined) | 9 (≈ 20.3 µM) |
| O=C(Cn1ncc2cc([N+](=O)[O-])ccc21)NN1C(=O)CSC1c1cccc([N+](=O)[O-])c1 (centres undefined) | 8 (≈ 18.1 µM) |

Test system: Salmonella typhi
Assay: Antibacterial activity against Salmonella typhi
Conditions: not given

| SMILES | MIC [µg/mL] |
| --- | --- |
| O=C(Cn1ncc2cc([N+](=O)[O-])ccc21)NN1C(=O)CSC1c1cccc(Br)c1 (centres undefined) | 17 (≈ 35.7 µM) |
| O=C(Cn1ncc2cc([N+](=O)[O-])ccc21)NN1C(=O)CSC1c1ccccc1[N+](=O)[O-] (centres undefined) | 13 (≈ 29.4 µM) |
| O=C(Cn1ncc2cc([N+](=O)[O-])ccc21)NN1C(=O)CSC1c1cccc([N+](=O)[O-])c1 (centres undefined) | 12 (≈ 27.1 µM) |

Test system: Salmonella typhi
Assay: Antibacterial activity against Salmonella typhi at 50 ug/mL
Conditions: read-out: IZ

| SMILES | zone of inhibition at 50 µg/mL [mm] |
| --- | --- |
| O=C(Cn1ncc2cc([N+](=O)[O-])ccc21)NN1C(=O)CSC1c1cccc(Br)c1 (centres undefined) | 18 |
| O=C(Cn1ncc2cc([N+](=O)[O-])ccc21)NN1C(=O)CSC1c1ccccc1[N+](=O)[O-] (centres undefined) | 21.2 |
| O=C(Cn1ncc2cc([N+](=O)[O-])ccc21)NN1C(=O)CSC1c1cccc([N+](=O)[O-])c1 (centres undefined) | 22 |

Test system: Salmonella typhi
Assay: Antibacterial activity against Salmonella typhi at 100 ug/mL
Conditions: read-out: IZ

| SMILES | zone of inhibition at 100 µg/mL [mm] |
| --- | --- |
| O=C(Cn1ncc2cc([N+](=O)[O-])ccc21)NN1C(=O)CSC1c1cccc(Br)c1 (centres undefined) | 21.9 |
| O=C(Cn1ncc2cc([N+](=O)[O-])ccc21)NN1C(=O)CSC1c1ccccc1[N+](=O)[O-] (centres undefined) | 25 |
| O=C(Cn1ncc2cc([N+](=O)[O-])ccc21)NN1C(=O)CSC1c1cccc([N+](=O)[O-])c1 (centres undefined) | 25.8 |
